Marks after values point to notes of the source that are not given here.
How the values were obtained:
Format in all cases: in vivo
mice of the C3H strain = test: Skin irritancy on clipped back skin, visual score, Example 3; details: three repeated topical administration, 1% in ethanol
Experimental: This experiment was conducted to test the skin irritancy of the compositions of this invention on hair-growing areas of test subjects, i.e., female mice (10 weeks old) of the C3H strain (n=5 group). After clipping the hair of the back skin of mice with an electric clipper, 5 μL/cm^2 of each four composition tested in Examples 1 and 2 (at a concentration of 1% in an ethanol solution) were applied. The application was administered once a day, for 3 consecutive days. Skin irritation was evaluated by unaided visual inspection at the end of the third day.

mice (Sencar strain) = test: Ear thickness after TPA plus pyrethroid application, Example 2
Experimental: Another ear thickness experiment was performed. Ear thickness of mice (Sencar strain, female, 10 weeks of age, n =3/group) was measured with a thickness gage (Mitsutoyo Corp.). After measuring the thickness of both ears at the beginning of the experiment, 20 μL of 12-O-tetradecanoyl-phorbol 13-acetate (TPA) at a concentration of 10^−4 M in acetone was applied on both ears, followed by the application of 10 μL of ethanol on the left ears and 10 μL of the four compositions tested in Example 1 on the right ears (at a concentration of 1% of pyrethroid compound in ethanol solution). Again, ear thickness was monitored over three consecutive days following administration of the compositions.

C3H strain mice [1] = test: Hair growth on clipped back skin, repeat with minoxidil control, Example 5; parameters: Level of hair growth (unaided visual inspection): scale not given here; details: for Promoting hair growth: concentrations of 0.1% and 1% in ethanol solutions
Experimental: (§1) The ability of topical administration of pyrethroid compounds to promote hair growth was assessed in female C3H strain mice (10 weeks old; n=5/group). Hair on the back skin of the mice was clipped carefully with an electric clipper. 5 μL/cm^2 of the five compositions tested in the examples above were applied to the mice daily. The level of hair growth at the applied skin areas were evaluated by unaided visual inspection at the indicated time. Cyclosporin A was used as a control.
The experiment described in Example 4 was repeated with a commercially available hair growth-promoting compound (5% minoxidil) as a control.

C3H strain mice [2] = test: Hair growth on clipped back skin, topical daily application, Example 4; parameters: Level of hair growth (unaided visual inspection): scale not given here; details: for Promoting hair growth: 1% topical daily; for Level of hair growth (unaided visual inspection): 1%, 5 μL/cm^2 daily, n=5/group
Experimental: as §1, with “time.” for “time. Cyclosporin A was used as a control.”

mice (C3H strain) = test: Ear thickness (primary skin irritancy) after topical application, Example 1; details: for Ear thickness compared to ethanol: 1% in ethanol
Experimental: The following example was performed to determine if pyrethroid compounds cause skin irritation (as indicated by ear thickness in mice). Skin irritants may contribute to promoting hair growth.
Prior to the experiment, ear thickness of mice (C3H strain, female, 16 weeks of age, n=3/group) was measured with a thickness gage (Mitsutoyo Corp.). After measuring ear thickness of both ears, 10 μL of ethanol was applied on left ear and 10 μL of a pyrethroid solution (1% pyrethroid compound in ethanol) was applied to the right ear. Ear thickness was measured for three consecutive days after administration.

[3] = day 0 (before application), Sencar female mice, n=3
[4] = day 1, 20 μL TPA 10^−4 M in acetone then 10 μL of 1% in ethanol, Sencar mice
[5] = day 2, 20 μL TPA 10^−4 M in acetone then 10 μL of 1% in ethanol, Sencar mice
[6] = day 3, 20 μL TPA 10^−4 M in acetone then 10 μL of 1% in ethanol, Sencar mice
[7] = day 0 (before application), C3H female mice, n=3
[8] = day 1, 10 μL of 1% in ethanol on right ear, C3H mice
[9] = day 2, 10 μL of 1% in ethanol on right ear, C3H mice
[10] = day 3, 10 μL of 1% in ethanol on right ear, C3H mice

SMILES | Skin irritation (redness) (mice of the C3H strain) | Right ear thickness (mice (Sencar strain); [3]) [×0.01 mm] | Right ear thickness (mice (Sencar strain); [4]) [×0.01 mm] | Right ear thickness (mice (Sencar strain); [5]) [×0.01 mm] | Right ear thickness (mice (Sencar strain); [6]) [×0.01 mm] | Level of hair growth (unaided visual inspection) (C3H strain mice [1]; 0.01%, Week 1) | Level of hair growth (unaided visual inspection) (C3H strain mice [1]; 0.01%, Week 2) | Level of hair growth (unaided visual inspection) (C3H strain mice [1]; 0.01%, Week 3) | Level of hair growth (unaided visual inspection) (C3H strain mice [1]; 0.01%, Week 4) | Level of hair growth (unaided visual inspection) (C3H strain mice [1]; 0.01%, Week 5) | Level of hair growth (unaided visual inspection) (C3H strain mice [1]; 0.01%, Week 6) | Level of hair growth (unaided visual inspection) (C3H strain mice [1]; 0.1%, Week 1) | Level of hair growth (unaided visual inspection) (C3H strain mice [1]; 0.1%, Week 2) | Level of hair growth (unaided visual inspection) (C3H strain mice [1]; 0.1%, Week 3) | Level of hair growth (unaided visual inspection) (C3H strain mice [1]; 0.1%, Week 4) | Level of hair growth (unaided visual inspection) (C3H strain mice [1]; 0.1%, Week 5) | Level of hair growth (unaided visual inspection) (C3H strain mice [1]; 0.1%, Week 6) | Level of hair growth (unaided visual inspection) (C3H strain mice [1]; 1%, Week 1) | Level of hair growth (unaided visual inspection) (C3H strain mice [1]; 1%, Week 2) | Level of hair growth (unaided visual inspection) (C3H strain mice [1]; 1%, Week 3) | further results
CC1(C)C(C=C(Cl)Cl)C1C(=O)OC(C#N)c1cccc(Oc2ccccc2)c1 (stereo not drawn) [Cypermethrin, cypermethrin] | failed to cause skin irritation | 24.0 | 26.7 | 28.3 | 27.3 | 0 | 0 | 0 | 0 | 0 | 0 | 0 | 0 | 5 | 5 | 5 | 5 | 0 | 0 | 5 | Level of hair growth (unaided visual inspection) (C3H strain mice [1]; 1%, Week 4): 5; Level of hair growth (unaided visual inspection) (C3H strain mice [1]; 1%, Week 5): 5; Level of hair growth (unaided visual inspection) (C3H strain mice [1]; 1%, Week 6): 5; Promoting hair growth (C3H strain mice [1]): effective in promoting hair growth; Promoting hair growth (C3H strain mice [2]): effective in promoting hair growth; Level of hair growth (unaided visual inspection) (C3H strain mice [2]; Day 7): 0; Level of hair growth (unaided visual inspection) (C3H strain mice [2]; Day 14): 0; Level of hair growth (unaided visual inspection) (C3H strain mice [2]; Day 19): 2; Level of hair growth (unaided visual inspection) (C3H strain mice [2]; Day 29): 4; Level of hair growth (unaided visual inspection) (C3H strain mice [2]; Day 36): 5; Ear thickness compared to ethanol (mice (C3H strain); C3H mice): did not increase ear thickness; Right ear thickness (mice (C3H strain); [7]): 27.7 ×0.01 mm; Right ear thickness (mice (C3H strain); [8]): 27.7 ×0.01 mm; Right ear thickness (mice (C3H strain); [9]): 27.3 ×0.01 mm; Right ear thickness (mice (C3H strain); [10]): 28.0 ×0.01 mm
CC1(C)[C@H](C(=O)O[C@H](C#N)c2cccc(Oc3ccccc3)c2)[C@@H]1C=C(Br)Br [Deltamethrin, deltamethrin] | failed to cause skin irritation | 26.0 | 27.3 | 29.0 | 28.0 | 0 | 0 | 1 | 1 | 1 | 3 | 0 | 0 | 5 | 5 | 5 | 5 | 0 | 2 | 5 | Level of hair growth (unaided visual inspection) (C3H strain mice [1]; 1%, Week 4): 5; Level of hair growth (unaided visual inspection) (C3H strain mice [1]; 1%, Week 5): 5; Level of hair growth (unaided visual inspection) (C3H strain mice [1]; 1%, Week 6): 5; Promoting hair growth (C3H strain mice [1]): effective in promoting hair growth; Promoting hair growth (C3H strain mice [2]): effective in promoting hair growth; Level of hair growth (unaided visual inspection) (C3H strain mice [2]; Day 7): 0; Level of hair growth (unaided visual inspection) (C3H strain mice [2]; Day 14): 0; Level of hair growth (unaided visual inspection) (C3H strain mice [2]; Day 19): 1; Level of hair growth (unaided visual inspection) (C3H strain mice [2]; Day 29): 5; Level of hair growth (unaided visual inspection) (C3H strain mice [2]; Day 36): 5; Ear thickness compared to ethanol (mice (C3H strain); C3H mice): did not increase ear thickness; Right ear thickness (mice (C3H strain); [7]): 27.0 ×0.01 mm; Right ear thickness (mice (C3H strain); [8]): 27.3 ×0.01 mm; Right ear thickness (mice (C3H strain); [9]): 27.3 ×0.01 mm; Right ear thickness (mice (C3H strain); [10]): 28.0 ×0.01 mm
CC(C)C(C(=O)OC(C#N)c1cccc(Oc2ccccc2)c1)c1ccc(Cl)cc1 (stereo not drawn) [Fenvalerate, fenvalerate] | failed to cause skin irritation | 24.0 | 26.3 | 26.7 | 26.7 | 0 | 0 | 0 | 0 | 0 | 0 | 0 | 0 | 5 | 5 | 5 | 5 | 0 | 0* | 3* | Level of hair growth (unaided visual inspection) (C3H strain mice [1]; 1%, Week 4): 5; Level of hair growth (unaided visual inspection) (C3H strain mice [1]; 1%, Week 5): 5; Level of hair growth (unaided visual inspection) (C3H strain mice [1]; 1%, Week 6): 5; Promoting hair growth (C3H strain mice [1]): effective in promoting hair growth; Promoting hair growth (C3H strain mice [2]): effective in promoting hair growth; Level of hair growth (unaided visual inspection) (C3H strain mice [2]; Day 7): 0; Level of hair growth (unaided visual inspection) (C3H strain mice [2]; Day 14): 0; Level of hair growth (unaided visual inspection) (C3H strain mice [2]; Day 19): 1; Level of hair growth (unaided visual inspection) (C3H strain mice [2]; Day 29): 4; Level of hair growth (unaided visual inspection) (C3H strain mice [2]; Day 36): 4; Ear thickness compared to ethanol (mice (C3H strain); C3H mice): did not increase ear thickness; Right ear thickness (mice (C3H strain); [7]): 27.3 ×0.01 mm; Right ear thickness (mice (C3H strain); [8]): 28.0 ×0.01 mm; Right ear thickness (mice (C3H strain); [9]): 28.0 ×0.01 mm; Right ear thickness (mice (C3H strain); [10]): 27.0 ×0.01 mm
Nc1cc(N2CCCCC2)nc(N)[n+]1[O-] [Minoxidil, minoxidil] |  |  |  |  |  |  |  |  |  |  |  |  |  |  |  |  |  |  |  |  | Level of hair growth (unaided visual inspection) (C3H strain mice [1]; 5%, Week 1): 0; Level of hair growth (unaided visual inspection) (C3H strain mice [1]; 5%, Week 2): 0; Level of hair growth (unaided visual inspection) (C3H strain mice [1]; 5%, Week 3): 2; Level of hair growth (unaided visual inspection) (C3H strain mice [1]; 5%, Week 4): 3; Level of hair growth (unaided visual inspection) (C3H strain mice [1]; 5%, Week 5): 4; Level of hair growth (unaided visual inspection) (C3H strain mice [1]; 5%, Week 6): 4
CC1(C)C(C=C(Cl)Cl)C1C(=O)OCc1cccc(Oc2ccccc2)c1 (stereo not drawn) [Permethrin, permethrin] | failed to cause skin irritation | 23.3 | 27.3 | 27.0 | 27.7 | 0 | 0 | 0 | 0 | 0 | 0 | 0 | 0 | 0 | 0 | 0 | 0 | 0 | 0 | 0 | Level of hair growth (unaided visual inspection) (C3H strain mice [1]; 1%, Week 4): 0; Level of hair growth (unaided visual inspection) (C3H strain mice [1]; 1%, Week 5): 0; Level of hair growth (unaided visual inspection) (C3H strain mice [1]; 1%, Week 6): 1; Level of hair growth (unaided visual inspection) (C3H strain mice [2]; Day 7): 0; Level of hair growth (unaided visual inspection) (C3H strain mice [2]; Day 14): 0; Level of hair growth (unaided visual inspection) (C3H strain mice [2]; Day 19): 0; Level of hair growth (unaided visual inspection) (C3H strain mice [2]; Day 29): 0; Level of hair growth (unaided visual inspection) (C3H strain mice [2]; Day 36): 0; Ear thickness compared to ethanol (mice (C3H strain); C3H mice): did not increase ear thickness; Right ear thickness (mice (C3H strain); [7]): 27.3 ×0.01 mm; Right ear thickness (mice (C3H strain); [8]): 27.7 ×0.01 mm; Right ear thickness (mice (C3H strain); [9]): 27.7 ×0.01 mm; Right ear thickness (mice (C3H strain); [10]): 28.3 ×0.01 mm

Source: US20010027213A1, “Use of pyrethroid compounds to promote hair growth” (priority 1998, published 2001)
